Where two headings read alike, the source gives them in different places.
Test system: HCV 1b genotype
Test: HCV Replicon assay, 1b genotype
Format: cell-based
Conditions: Hepatitis C virus, HCV 1b genotype replicon
Description: An HCV Replicon assay was utilized in the present disclosure, and was prepared, conducted and validated as described in commonly owned PCT/US2006/022197 and in O'Boyle et. al. Antimicrob Agents Chemother. 2005 April; 49(4):1346-53. Assay methods incorporating luciferase reporters have also been used as described (Apath.com).
HCV-neo replicon cells and replicon cells containing mutations in the NS5A region were used to test the currently described family of compounds. The compounds were determined to have more than 10-fold less inhibitory activity on cells containing mutations than wild-type cells. Thus, the compounds of the present disclosure can be effective in inhibiting the function of the HCV NS5A protein and are understood to be as effective in combinations as previously described in application PCT/US2006/022197 and commonly owned WO/04014852. Further, the compounds of the present disclosure can be effective against the HCV 1b genotype. It should also be understood that the compounds of the present disclosure can inhibit multiple genotypes of HCV. […] In one embodiment, compounds of the present disclosure are active against the 1a, 1b, 2a, 2b, 3a, 4a, and 5a genotypes. EC50 values against HCV 1b are as follows: A=5 pM to 5 nM.

[1] = read-out: Range (EC50 values against HCV 1b)
[2] = read-out: 1b EC50 (Effective 50% inhibitory concentration)

Row | Structure (SMILES) | EC50 [1] | EC50 [2]
1 | O=C(N[C@@H](C(=O)N1CCC[C@H]1c1nc(-c2ccc(-c3ccc(-c4cnc([C@@H]5CCCN5C(=O)[C@H](NC(=O)OC5CC5)c5ccccc5)[nH]4)cc3)cc2)c[nH]1)c1ccccc1)OC1CC1 [Example CQ-3, Cyclopropyl ((1R)-2-((2S)-2-(4-(4′-(2-((2S)-1-((2R)-2-(((cyclopropyloxy)carbonyl)amino)-2-phenylacetyl)-2-pyrrolidinyl)-1H-imidazol-5-yl)-4-biphenylyl)-1H-imidazol-2-yl)-1-pyrrolidinyl)-2-oxo-1-phenylethyl)carbamate] | 5 to 5000 pM | –
2 | O=C(N[C@@H](C(=O)N1[C@@H]2C[C@@H]2C[C@H]1c1nc(-c2ccc(-c3ccc(-c4cnc([C@@H]5C[C@H]6C[C@H]6N5C(=O)[C@H](NC(=O)OC5CCCCC5)c5ccccc5)[nH]4)cc3)cc2)c[nH]1)c1ccccc1)OC1CCCCC1 [Example CQ-8, Cyclohexyl ((1R)-2-((1R,3S,5R)-3-(4-(4′-(2-((1R,3S,5R)-2-((2R)-2-(((cyclohexyloxy)carbonyl)amino)-2-phenylacetyl)-2-azabicyclo[3.1.0]hex-3-yl)-1H-imidazol-5-yl)-4-biphenylyl)-1H-imidazol-2-yl)-2-azabicyclo[3.1.0]hex-2-yl)-2-oxo-1-phenylethyl)carbamate] | 5 to 5000 pM | –
3 | O=C(N[C@@H](C(=O)N1[C@@H]2C[C@@H]2C[C@H]1c1nc(-c2ccc(-c3ccc(-c4c[nH]c([C@@H]5C[C@H]6C[C@H]6N5C(=O)[C@H](NC(=O)OC5CCCC5)c5ccccc5)n4)cc3)cc2)c[nH]1)c1ccccc1)OC1CCCC1 [Example CQ-6, Cyclopentyl ((1R)-2-((1R,3S,5R)-3-(4-(4′-(2-((1R,3S,5R)-2-((2R)-2-(((cyclopentyloxy)carbonyl)amino)-2-phenylacetyl)-2-azabicyclo[3.1.0]hex-3-yl)-1H-imidazol-5-yl)-4-biphenylyl)-1H-imidazol-2-yl)-2-azabicyclo[3.1.0]hex-2-yl)-2-oxo-1-phenylethyl)carbamate] | 5 to 5000 pM | –
4 | O=C(N[C@@H](C(=O)N1CCC[C@H]1c1nc(-c2ccc(-c3ccc(-c4c[nH]c([C@@H]5CCCN5C(=O)[C@H](NC(=O)OC5CCC5)c5ccccc5)n4)cc3)cc2)c[nH]1)c1ccccc1)OC1CCC1 [Example CQ-1, Cyclobutyl ((1R)-2-((2S)-2-(4-(4′-(2-((2S)-1-((2R)-2-(((cyclobutyloxy)carbonyl)amino)-2-phenylacetyl)-2-pyrrolidinyl)-1H-imidazol-5-yl)-4-biphenylyl)-1H-imidazol-2-yl)-1-pyrrolidinyl)-2-oxo-1-phenylethyl)carbamate] | 5 to 5000 pM | –
5 | O=C(N[C@@H](C(=O)N1CCC[C@H]1c1nc(-c2ccc(-c3ccc(-c4c[nH]c([C@@H]5CCCN5C(=O)[C@H](NC(=O)OC5CCCC5)c5ccccc5)n4)cc3)cc2)c[nH]1)c1ccccc1)OC1CCCC1 [Example CQ-2, Cyclopentyl ((1R)-2-((2S)-2-(4-(4′-(2-((2S)-1-((2R)-2-(((cyclopentyloxy)carbonyl)amino)-2-phenylacetyl)-2-pyrrolidinyl)-1H-imidazol-5-yl)-4-biphenylyl)-1H-imidazol-2-yl)-1-pyrrolidinyl)-2-oxo-1-phenylethyl)carbamate] | 5 to 5000 pM | 12 pM
6 | O=C(N[C@@H](C(=O)N1[C@@H]2C[C@@H]2C[C@H]1c1nc(-c2ccc(-c3ccc(-c4cnc([C@@H]5C[C@H]6C[C@H]6N5C(=O)[C@H](NC(=O)OC5CC5)c5ccccc5)[nH]4)cc3)cc2)c[nH]1)c1ccccc1)OC1CC1 [Example CQ-7, Cyclopropyl ((1R)-2-((1R,3S,5R)-3-(4-(4′-(2-((1R,3S,5R)-2-((2R)-2-(((cyclopropyloxy)carbonyl)amino)-2-phenylacetyl)-2-azabicyclo[3.1.0]hex-3-yl)-1H-imidazol-5-yl)-4-biphenylyl)-1H-imidazol-2-yl)-2-azabicyclo[3.1.0]hex-2-yl)-2-oxo-1-phenylethyl)carbamate] | 5 to 5000 pM | 6.1 pM
7 | O=C(N[C@@H](C(=O)N1CCC[C@H]1c1nc(-c2ccc(-c3ccc(-c4cnc([C@@H]5CCCN5C(=O)[C@H](NC(=O)OC5CCCCC5)c5ccccc5)[nH]4)cc3)cc2)c[nH]1)c1ccccc1)OC1CCCCC1 [Example CQ-4, Cyclohexyl ((1R)-2-((2S)-2-(4-(4′-(2-((2S)-1-((2R)-2-(((cyclohexyloxy)carbonyl)amino)-2-phenylacetyl)-2-pyrrolidinyl)-1H-imidazol-5-yl)-4-biphenylyl)-1H-imidazol-2-yl)-1-pyrrolidinyl)-2-oxo-1-phenylethyl)carbamate] | 5 to 5000 pM | –
8 | O=C(N[C@@H](C(=O)N1[C@@H]2C[C@@H]2C[C@H]1c1nc(-c2ccc(-c3ccc(-c4c[nH]c([C@@H]5C[C@H]6C[C@H]6N5C(=O)[C@H](NC(=O)OC5CCC5)c5ccccc5)n4)cc3)cc2)c[nH]1)c1ccccc1)OC1CCC1 [Example CQ-5, Cyclobutyl ((1R)-2-((1R,3S,5R)-3-(4-(4′-(2-((1R,3S,5R)-2-((2R)-2-(((cyclobutyloxy)carbonyl)amino)-2-phenylacetyl)-2-azabicyclo[3.1.0]hex-3-yl)-1H-imidazol-5-yl)-4-biphenylyl)-1H-imidazol-2-yl)-2-azabicyclo[3.1.0]hex-2-yl)-2-oxo-1-phenylethyl)carbamate] | 5 to 5000 pM | –

Reference: US8138215B2, “Hepatitis C virus inhibitors” (Bristol-Myers Squibb Company, priority 2009, dated 2012)
